The source of these data is article PMC6572618, “Anti-Trypanosomal and Antimalarial Properties of Tetralone Derivatives and Structurally Related Benzocycloalkanones” (Medicina, 2019).

Like-named read-outs stand apart in the source and are kept apart here.

Holding throughout (assay type): cell-based
Data set [1] has as its system 427 Trypanosoma brucei brucei trypomastigotes. Briefly: In vitro anti-trypanosomal assay (resazurin). The conditions noted are these: 48 h; for viability at 20 µM / % Viability at 20 µM (SD) T.b. brucei: 20 µM compound, % parasite viability relative to untreated control; for viability at 20 µM: read-out: % Viability at 20 µM (SD) T.b. brucei; for IC50: three-fold serial dilutions from 100 µM, read-out: IC50 (µM) T. b. brucei. On the procedure: The activity of the compounds against 427 Trypanosoma brucei brucei trypomastigotes was determined as previously described. Briefly, parasites were incubated in 96-well plates with 20 µM or three-fold serial dilutions (100 µM starting concentration) of test compounds in Iscove’s modified Dulbecco’s medium (IMDM) (Lonza, Basel, Switzerland) supplemented with 10% fetal calf serum, HMI-9 supplement, hypoxanthine, and penicillin/streptomycin at 37 °C in a 5% CO2 incubator. After 48 h, 20 µL of resazurin reagent (0.135 mg/mL resazurin in phosphate-buffered saline) was added to each well and the fluorescence (Ex560/Em590) read after 2–4 h in a Spectramax M3 plate reader (Molecular Devices, San Jose, CA, USA). The fluorescence readings were used to calculate % parasite viability relative to the readings obtained from the wells containing untreated control parasite cultures. The IC50 values were determined by plotting % viability vs. log(compound) and performing a non-linear regression using a GraphPad Prism (v. 5.02) (San Diego, CA, USA).
(§1) Thirty-five tetralone derivatives (see Figure 2) and six related benzocycloalkanones (see Figure 3) were evaluated in vitro against T. b. brucei for antitrypanosomal activity through the resazurin assay protocol. The compounds were also evaluated against the chloroquine-sensitive strain (3D7) of P. falciparum for antimalarial activity using pLDH assay and against the HeLa cell line for cytotoxicity evaluation using the resazurin assay protocol.
For orientation: Alamar Blue is a resazurin reagent that responds to reducing activity.

The nature of data set [2]: In vitro cytotoxicity assay (resazurin). The conditions noted are these: human, 20 µM compound, 24 h, % cell viability relative to untreated control, read-out: % Viability at 20 µM (SD) HeLa Cell. On the procedure:
As previously described, HeLa cells (Cellonex, Johannesburg, South Africa) were seeded in 96-well plates at a density of 2 × 10^4 cells/well in Dulbecco’s modified Eagle’s medium (DMEM) (Lonza, Basel, Switzerland) supplemented with 10% fetal calf serum and antibiotics (penicillin/streptomycin/amphotericin B) and incubated overnight at 37 °C in a 5% CO2 incubator. Compounds were added to the cells at a final concentration of 20 µM, and incubation continued for 24 h. The cell viability in the wells was assessed by adding 20 µL of resazurin reagent (0.135 mg/mL resazurin in phosphate-buffered saline) and reading the fluorescence (Ex560/Em590) after an additional 2–4 h incubation. The fluorescence readings were converted to % cell viability relative to the average readings obtained from the untreated control wells.
as §1

In data set [3] the test system is chloroquine sensitive strain of P. falciparum (3D7). The data set is described as follows: In vitro antiplasmodial assay (parasite lactate dehydrogenase, pLDH). The conditions noted are these: Plasmodium falciparum, 3D7, 48 h, read-out: % Viability at 20 µM (SD) 3D7. On the procedure:
An antimalarial evaluation was performed against the chloroquine sensitive strain of P. falciparum (3D7) using the parasite lactate dehydrogenase (pLDH) assay as previously reported. Parasites were seeded at 2% parasitemia and 1% hematocrit in 96 well plates and were incubated with 20 µM of the test compounds for 48 h in culture medium consisting of Rosell Park Memorial Institute (RPMI 1640; Lonza, Basel, Switzerland) containing 25 mM 4-(2-hydroxyethyl)-1-piperazineethanesulfonic acid (HEPES), supplemented with 0.5% (w/v) Albumax II, 22 mM glucose, 0.65 mM hypoxanthine, 0.05mg/mL gentamicin, and 1% (v/v) human erythrocytes, at 37 °C under an atmosphere of 5% CO2, 5% O2, and 90% N2. The parasite lactate dehydrogenase activity in the wells was determined using the colorimetric assay method of Makler et al.. The absorbance readings were converted to % parasite viability relative to the wells containing untreated parasites.
as §1

Setting [4] is: 20 µM compound, 48 h, P. falciparum 3D7, % parasite viability relative to untreated parasites.

For the compound `O=C1/C(=C/c2ccc(Br)cc2)CCc2ccc(O)cc21` [Compound 16], in data set [1] (Trypanosoma brucei), the viability at 20 µM stood at 0.1% and the IC50 was 1.24 µM. Moreover, in data set [2] (HeLa cells), the viability at 24 h, 20 µM came to 62%. Further, the viability at 20 µM in data set [3] (setting [4]) came out at 43%.

In the case of `N#Cc1cccc(/C=C2\CCc3ccccc3C2=O)c1` [Compound 1], the viability at 20 µM in data set [1] (Trypanosoma brucei) was 0.06%; in data set [3] (setting [4]) it was 113%. Further, the IC50 in data set [1] (Trypanosoma brucei) was 2.3 µM. For the same compound, the viability at 24 h, 20 µM in data set [2] (HeLa cells) was determined as 87%.

Regarding `COc1ccc2c(c1)C(=O)/C(=C/C1CCCCC1)CC2` [Compound 26], the figures for the viability at 20 µM in data set [1] (Trypanosoma brucei) and in data set [3] (setting [4]) were less than 1% and 119%, respectively. For the same compound, the viability at 24 h, 20 µM in data set [2] (HeLa cells) is 92%.

Consider `COc1ccc2c(c1)C(=O)/C(=C/c1ccccc1)CC2` [Compound 10], for which the IC50 in data set [1] (Trypanosoma brucei) stood at 1.04 µM. For the same compound, in data set [2] (HeLa cells), the viability at 24 h, 20 µM turned out to be 65%. Moreover, the viability at 20 µM in data set [3] (setting [4]) came out at 113%.

Turning to `COc1ccc2c(c1)C(=O)/C(=C/C1CCCC1)CC2` [Compound 27], in data set [1] (Trypanosoma brucei), the viability at 20 µM was less than 1% and the IC50 is 5.4 µM. The viability at 24 h, 20 µM in data set [2] (HeLa cells) was 85%. Also, in data set [3] (setting [4]), the viability at 20 µM stood at 81%.

Take `O=C1/C(=C/c2ccc(Cl)cc2)COc2ccccc21` [Compound 38]: the “% Viability at 20 µM (SD) T.b. brucei” value in data set [1] was 0.4 (0.2) %. For the same compound, the IC50 in data set [1] (Trypanosoma brucei) worked out at 0.4 µM. Further, the viability at 24 h, 20 µM in data set [2] is 75%. The viability at 20 µM in data set [3] came to 98%.

For `COc1ccc(/C=C2\CCc3ccccc3C2=O)cc1` [Compound 4], the viability at 20 µM in data set [1] (Trypanosoma brucei) was determined as 0.5%; in data set [3] (setting [4]), 100%. In addition, the IC50 in data set [1] (Trypanosoma brucei) is 6.7 µM. For the same compound, the viability at 24 h, 20 µM in data set [2] (HeLa cells) is 76%.

Consider `O=C1/C(=C/c2cccc(F)c2)CCc2ccccc21` [Compound 6], for which the viability at 20 µM is 0.5% in data set [1] (Trypanosoma brucei) and 131% in data set [3] (setting [4]). Further, in data set [1] (Trypanosoma brucei), the half-maximal inhibitory concentration (IC50) turned out to be 3.1 µM. Also, the viability at 24 h, 20 µM in data set [2] (HeLa cells) is 121%.

As to `Cc1ccc(/C=C2\CCc3ccc(O)cc3C2=O)cc1` [Compound 20], the viability at 20 µM in data set [1] (Trypanosoma brucei) was -0.4%; in data set [3] (setting [4]), 116%. For the same compound, in data set [1] (Trypanosoma brucei), the IC50 is 5.3 µM. In addition, the viability at 24 h, 20 µM in data set [2] (HeLa cells) amounted to 69%.

As for `O=C1/C(=C/c2ccccc2)CCc2cc(O)ccc21` [Compound 7], in data set [1], the “% Viability at 20 µM (SD) T.b. brucei” value is listed as 0.6 (0.2) % and the half-maximal inhibitory concentration (IC50) amounted to 0.46 µM. Moreover, in data set [1] (Trypanosoma brucei), the viability at 20 µM was 0.66% and the IC50 was determined as 0.4 µM. In addition, the viability at 24 h, 20 µM in data set [2] (HeLa cells) turned out to be 54%. The viability at 20 µM in data set [3] (setting [4]) was found to be 89%.

For orientation: viability means a read-out of living cells in per cent, often relative to untreated cells. What is called IC50 is the concentration needed to halve the response being measured.
